The values below come from patent US8349553B2, “Jasmonate based assays for identifying compounds that selectively inhibit mitochondrial bound hexokinases” (Ramot at Tel Aviv University Ltd., priority 2007, dated 2013).

The subject of one data set is BCL-1 leukemic cells. The data set is described as follows: Cellular ATP levels (CellTiter-Glo), BCL-1. The format is cell-based, murine. Conditions: 60 minutes of exposure, various concentrations. The protocol:
(§1) The CellTiter-Glo™ Luminescent Cell Viability Assay (Promega, Madison, Wis., U.S.A.) was employed (Fingrut, 2005). Upon completion of a given experiment, plates were equilibrated to room temperature. CellTiter-Glo™ reagent containing luciferin and luciferase was added to each well and the plates were mixed on an orbital shaker for 2 minutes to induce cell lysis. In the presence of ATP, Mg^2+ and molecular oxygen, mono-oxidation of luciferin is catalyzed by luciferase, generating a luminescence signal. Cells were then incubated for 10 minutes at room temperature to stabilize the luminescence signal. Luminescence was recorded using Kodak digital science—Image station 440 CD. Luminescence is directly proportional to ATP concentration. ATP depletion (% of control) was calculated in the following way: {(luminescence of control cells−luminescence of drug-treated cells)/luminescence of control cells}×100. In order to test the correlation between cellular ATP levels and the release of hexokinase from mitochondrial fraction different cancer cells, namely Molt-4 cells, BCL-1 leukemic cells and B16 melanoma tumors were exposed to various methyl jasmonate concentrations. […] CT26 and Molt-4 cells were then seeded in 24 well plates. CT26 cells were allowed to adhere over night. Cells were exposed to methyl jasmonate (MJ; 3 mM) for 1 hour. Trypan blue exclusion test was performed and cells were counted.
On the technique in general: ATP-based viability assays read luminescence as a measure of living cells.

A further data set deals with Molt-4 cells. The data set is described as follows: Cellular ATP levels (CellTiter-Glo), Molt-4. It counts as cell-based, human. Particulars: 60 minutes of exposure, various concentrations. The protocol: as §1
Data set [1] has as its system CT26 cells transfected with pcDNA3-HKII or pcDNA3. How it is done: Cell death was determined by trypan blue exclusion. […] Alternatively, cytotoxicity was determined using hemacolor staining. Upon completion of a given experiment, cells were stained and the percentage of dead (detached) cells was determined spectrophotometrically.
CT26 cells were transfected with pcDNA3-HKII or pcDNA3, using FuGene HD transfection reagent (Roche, Basel, Switzerland), according to the manufacturer's instruction followed by selection using G418.
To examine the effect of hexokinase over-expression on methyl jasmonate action, CT26 cells were transfected with plasmids, pcDNA3-HKII or pcDNA3, encoding for hexokinase II over-expression and a control plasmid, respectively (Zaid, 2005). Cells were seeded in 96-well plates and allowed to adhere. Cells were exposed to methyl jasmonate for 60 minutes prior to ATP determination (FIG. […] 9B).

For the next data set, the system named is B16 melanoma. The data set is described as follows: Cellular ATP levels (CellTiter-Glo), B16. It counts as cell-based, murine. Conditions: 60 minutes of exposure, various concentrations. How it is done:
as §1

In data set [2] the target is T1, mitochondria-bound hexokinase (mitochondrial fraction isolated from mouse brain) (Mus musculus, UniProt P17710).
T1 construct: detach hexokinase from mitochondrial fraction isolated from mouse brain; from tissue; host or cells: mouse brain (mitochondrial fraction)
T1 sequence (P17710 1-918 isoform P17710-3): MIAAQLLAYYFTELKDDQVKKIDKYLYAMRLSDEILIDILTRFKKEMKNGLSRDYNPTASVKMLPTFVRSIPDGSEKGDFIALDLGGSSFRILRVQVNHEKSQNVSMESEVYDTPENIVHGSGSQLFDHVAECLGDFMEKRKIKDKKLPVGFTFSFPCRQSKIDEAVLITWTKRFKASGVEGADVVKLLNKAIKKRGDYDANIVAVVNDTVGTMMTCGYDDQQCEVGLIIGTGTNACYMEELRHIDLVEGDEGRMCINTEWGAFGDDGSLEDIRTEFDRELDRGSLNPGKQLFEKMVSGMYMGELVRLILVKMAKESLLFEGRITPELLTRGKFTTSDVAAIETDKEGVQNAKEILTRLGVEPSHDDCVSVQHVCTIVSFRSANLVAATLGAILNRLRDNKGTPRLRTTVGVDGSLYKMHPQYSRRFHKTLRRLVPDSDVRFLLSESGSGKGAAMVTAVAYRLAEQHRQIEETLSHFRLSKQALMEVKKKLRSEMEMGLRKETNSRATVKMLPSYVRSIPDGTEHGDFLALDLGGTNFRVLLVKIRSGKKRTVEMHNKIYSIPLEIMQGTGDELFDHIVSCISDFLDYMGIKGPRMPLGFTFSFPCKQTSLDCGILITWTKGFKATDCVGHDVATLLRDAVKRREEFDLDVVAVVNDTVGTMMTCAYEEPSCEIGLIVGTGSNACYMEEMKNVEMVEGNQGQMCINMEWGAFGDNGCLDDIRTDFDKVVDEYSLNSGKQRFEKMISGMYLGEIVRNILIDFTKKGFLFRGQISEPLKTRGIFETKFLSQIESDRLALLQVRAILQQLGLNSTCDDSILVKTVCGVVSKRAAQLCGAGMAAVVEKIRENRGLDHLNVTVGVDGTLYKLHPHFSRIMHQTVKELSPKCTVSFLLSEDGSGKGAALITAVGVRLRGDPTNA
The data set is described as follows: Hexokinase detachment assay, mitochondrial fraction of mouse brain. It counts as biochemical.
Protocol: To determine the amount of hexokinase detached from the mitochondrial fraction by different agents, mitochondria were incubated with the agent of interest and pelleted by centrifugation. Activity of hexokinase in the supernatant (i.e., activity of the detached hexokinase) was determined spectrophotometrically at 340 nm. The reaction couples the ADP formation by hexokinase, consuming the ADP for pyruvate formation by pyruvate kinase, and reducing the pyruvate with NADH by lactate dehydrogenase. Briefly, mitochondria were suspended in incubation buffer (HEPES pH 7.4 20 mM, Sucrose 0.25M, Glucose 10 mM, KCl5 mM, MgCl2 10 mM; 0.2 mg/test, 100 μL/test) and incubated as described below. Mitochondria-bound hexokinase was precipitated by centrifugation at 20,000 g for 10 minutes at 4° C. The activity of hexokinase in the supernatant fraction was assayed in reaction buffer (250 μL; HEPES pH 7.2 20 mM, MgCl2 5 mM, KCl 5 mM, glucose 10 mM) freshly supplemented with pyruvate kinase (1 U/ml), lactate dehydrogenase (1 U/ml), ATP (1 mM), phospho(enol)pyruvate (1 mM), NADH (0.18 mg/ml). […] Mitochondrial fractions were incubated for either 10, 30 or 60 minutes at 37° C. The activity of unbound hexokinase was measured and compared to the activity of spontaneously (control) detached hexokinase.

Another data set concerns the target T2, purified rat brain HKI (Rattus norvegicus, UniProt P05708).
T2 construct: from tissue; host or cells: rat brain mitochondria
Briefly: Surface plasmon resonance analysis of jasmonate-HK interactions. The format is binding. Conditions: analyte injected at varying concentrations (MJ 0.375-6 mM); 25° C. The protocol:
Rat brain HK-I was purified as following, crude brain mitochondria containing tightly bound HK-I were incubated with 1.2 mM glucose-6-phosphate and 0.5 mM K-EDTA to release the enzyme into the soluble fraction. Further purification of HK-I was achieved by affinity chromatography on Cibacron Blue-agarose (Pharmacia). The purified enzyme was concentrated and washed in 0.5 mM K-EDTA, 10 mM glucose, 1 mM dithiothreitol and 10 mM K-Hepes, pH 7.8, using an Amicon device and a 50,000 Da molecular mass cut-off membrane (Spectrum; type C). The concentrated enzyme (up to 1 mg/ml; 30-60 units/mg) was frozen in liquid nitrogen and stored at −80° C. until use (Azoulay-Zohar, 2004).
Surface plasmon resonance (SPR) is an optical biosensor technique that measures molecular binding events at a metal surface by detecting changes in the local refractive index. SPR is the surface-sensitive technique ideal for studying interactions between immobilized biomolecules (ligands) and a solution-phase analyte. The biosensor response is directly proportional to the mass of the bound analyte. The advantage of SPR for investigation of small molecular weight analytes over conventional techniques such as fluorescence or enzyme-linked immunosorbent assay is detection of an analyte being label-free and direct, without the need for labeling of analyte or multistep detection protocols (sandwich assay). […]
(In SPR one partner is held on a chip, and binding of the other changes the refractive index at the surface.)

T2 sequence (P05708 whole entry): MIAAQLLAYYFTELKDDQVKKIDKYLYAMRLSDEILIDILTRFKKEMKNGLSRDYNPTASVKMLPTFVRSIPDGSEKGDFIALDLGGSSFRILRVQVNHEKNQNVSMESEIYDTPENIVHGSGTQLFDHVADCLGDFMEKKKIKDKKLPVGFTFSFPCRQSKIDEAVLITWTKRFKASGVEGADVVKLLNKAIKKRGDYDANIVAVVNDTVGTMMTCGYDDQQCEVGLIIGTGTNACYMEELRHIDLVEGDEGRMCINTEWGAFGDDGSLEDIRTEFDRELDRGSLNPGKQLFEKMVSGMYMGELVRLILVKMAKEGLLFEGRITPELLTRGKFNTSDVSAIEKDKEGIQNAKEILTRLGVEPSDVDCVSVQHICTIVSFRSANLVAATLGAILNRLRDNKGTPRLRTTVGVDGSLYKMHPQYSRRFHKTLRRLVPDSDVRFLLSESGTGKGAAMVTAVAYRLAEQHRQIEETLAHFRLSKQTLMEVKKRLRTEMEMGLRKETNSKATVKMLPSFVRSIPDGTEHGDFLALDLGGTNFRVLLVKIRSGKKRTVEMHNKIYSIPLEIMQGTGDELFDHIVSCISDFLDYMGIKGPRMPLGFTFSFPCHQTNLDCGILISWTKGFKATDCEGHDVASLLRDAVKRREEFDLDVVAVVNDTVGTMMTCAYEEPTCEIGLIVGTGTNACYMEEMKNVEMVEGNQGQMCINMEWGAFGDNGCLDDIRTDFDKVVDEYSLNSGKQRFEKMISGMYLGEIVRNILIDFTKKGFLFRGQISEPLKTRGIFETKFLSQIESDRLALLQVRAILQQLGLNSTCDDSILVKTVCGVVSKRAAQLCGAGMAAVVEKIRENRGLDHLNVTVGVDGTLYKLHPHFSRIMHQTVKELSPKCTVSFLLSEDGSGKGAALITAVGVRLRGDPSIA

With `CC/C=C\CC1C(=O)CCC1CC(=O)OC` (stereo not shown) [methyl jasmonate], the “cellular ATP level” value in the data set with BCL-1 leukemic cells is “significant and dose-dependent decrease of cellular ATP”; in the data set with Molt-4 cells, “significant and dose-dependent decrease of cellular ATP”; with B16 melanoma, “significant and dose-dependent decrease of cellular ATP”. The “cytotoxicity (hemacolor), hexokinase II over-expressing vs. control cells” value in data set [1] is reported as “decreased in cells with higher expression of hexokinase II”. The “detachment of hexokinase, time dependence” value in data set [2] (3 mM, 10, 30 or 60 minutes at 37° C.) is given as “time-dependent”. Moreover, in data set [2] (30 minutes of incubation), the “detachment of hexokinase, dose dependence” value is given as “dose dependent”. On purified rat brain HKI, the “binding to immobilized hexokinase (SPR)” value was “bind to purified rat brain HKI in a dose-dependent manner”.
